# Test results taken from patent US5474992A, “Method of treatment with pharmaceutical composition for renal disorder and a dialysis solution for extracorporeal hemodialysis” (Senju Pharmaceutical Co., Ltd., priority 1993, dated 1995).
# Key:
# [1] = test system: adriamycin nephrosis in rats; experiment: Effect on adriamycin nephrosis in rats; assay type: in vivo, male SD rats; conditions: 1 mg/kg, i.p. once daily, day 80, mean ± standard error, n=5 to 6
# Protocol: The effect of the compound of this Invention on adriamycin nephrosis in rats was evaluated.
# Method: This study was conducted in male SD rats (body weight: about 180 g) purchased from Japan SLC. The rats were intravenously dosed with 7.5 mg/kg of adriamycin to induce renal impairment.
# The test substance EPC-K was administered intraperitoneally once daily and the rat was sacrificed on day 80 for determination of biochemical parameters. Physiological saline was used as control.
# salt-sensitive rats = experiment: Effect on salt-sensitive rats (NaCl-induced renal impairment); assay type: in vivo, male Dahl S rats; conditions: mean ± standard error, n=4 to 6, * p < 0.0001, control 30.0 ± 2.9
# Protocol: The effect of the compound of this invention on salt-sensitive rats was investigated.
# Method: Male Dahl S rats (salt-sensitive rats) were purchased from Seiwa Experimental Animal Institute and loaded with 8% aqueous solution of sodium chloride to induce renal impairment.
# The test substance EPC-K was administered once daily for 4 weeks. As a control, distilled water was orally administered.
# [2] = test system: rats with vitamin E deficiency; experiment: Effect on renal impairment in rats with vitamin E deficiency (DL-buthionine sulfoximine induced); assay type: in vivo, male Wistar rats; conditions: 141 mg/5 ml/kg p.o. once daily for one week, vitamin E-deficient rats + BSO, mean ± standard error, n=5
# Protocol: The effect of the compound of this invention, administered orally, on renal impairment in rats with vitamin E deficiency was evaluated.
# Test substance: L-ascorbyl DL-α-tocopheryl phosphate potassium (abbreviation: EPC-K).
# Method: Male Wistar rats were purchased from Japan Clea, Inc. at the age of 4 weeks and put on a vitamin E-deficient diet for 10 weeks before the experiment.
# The rat model of renal impairment was constructed by administering 1 mmol/kg of DL-buthionine sulfoximine (abbreviation: BSO), a glutathione (abbreviation: GSH) synthesis inhibitor, intraperitoneally once a day for 3 consecutive days.
# Five hours after the last administration of DL-buthionine sulfoximine (BSO), the blood was drawn from the lower abdominal aorta under pentobarbital anesthesia and the serum levels of creatinine, urea nitrogen (abbreviation: BUN) and lipid peroxide (abbreviation: LPO), which are indicators of renal function, were determined by Jaffe's method, urease-indophenol method, and Yagi's method, respectively.
# The test substance EPC-K was administered orally in a dose of 141 mg/5 ml/kg once daily for one week until the blood sampling day. As a control, distilled water was used.
# [3] = test system: neutrophil-derived active oxygens formed due to the dialysis membrane; experiment: Chemiluminescence assay of scavenging effect on neutrophil-derived active oxygens formed due to the dialysis membrane; assay type: cell-based, SD rat; conditions: PMMA membrane, MCLA; for Chemiluminescence photon count: mean ± standard deviation, n=5, blank test 42392 ± 12789
# Protocol: The scavenging effect of the compound of this invention on the neutrophil-derived active oxygens formed due to the dialysis membrane was evaluated by the chemiluminescence assay.
# An SD rat was intraperitoneally infused with 120 ml/kg of 1% casein-containing Krebs-Ringer bicarbonate buffer (Ca^2+ -free) and kept as it was for 15 to 18 hours. Then, ice-cooled phosphate buffered saline (Ca^2+ /Mg^2+ -free, briefly PBS) was infused into the peritoneal cavity and after massaging the abdomen, laparotomy was performed to collect the peritoneal fluid. This fluid was centrifuged (4° C.) at 150G for 5 minutes and the sediment was subjected to hemolysis treatment, washed with 2 portions of PBS and suspended in Hanks buffered saline (Ca^2+ /Mg^2+ -free; abbreviation: HBS) at a concentration of 5×10^6 cells/ml.
# The hollow fiber of polymethyl methacrylate (PMMA) was taken out from the Filtrizer cartridge, rinsed and dried. The dried hollow fiber was milled in a mortar (to a particle diameter of about 20 to 100 μm) and suspended in HBS at a concentration of 100 mg/ml.
# MCLA (2-methyl-6-[p-methoxyphenyl]-3,7,-dihydroimidazolo[1,2-a]pyrazin-3-one)(Cypridina luciferin analog; manufactured by Tokyo Kasei Kogyo Co., Ltd.) was dissolved in HBS at a concentration of 5 μM.
# EPC-K was dissolved in HBS at final concentrations of 1 μM to 10 μM. To 100 μl of each solution were added 300 μl of the neutrophil suspension and 100 μl of the MCLA solution and the mixture was incubated at 37° for 10 minutes. Then, 20 μl of the PMMA suspension was added and the resulting MCLA-dependent chemiluminescence was quantitated in 5 replicates. From the photon count at maximal emission was subtracted the minimal count immediately following addition of the PMMA suspension to arrive at the chemiluminescence photon count (CPM). The count obtained with HBS (blank test) was compared with the count obtained with the drug and the percent inhibition (%) was calculated by means of the following equation. [formula]
# [4] = test system: adenine nephrosis in rats; experiment: Effect on adenine nephrosis in rats; assay type: in vivo, male Wistar rats; conditions: i.p. once a day, mean ± standard error, n=8 to 9; for Creatinine: control (saline) 1.95 ± 0.64; for BUN: control (saline) 98.4 ± 34.5
# Protocol: The effect of the compound of this invention on adenine nephrosis in rats was evaluated.
# Method: Male Wistar rats, aged 7 weeks, were purchased from SLC and used.
# The rats were put on a 0.5% adenine-containing diet for 30 days to induce adenine nephrosis.
# The test substance EPC-K was intraperitoneally administered once a day. Physiological saline was used as control.
# [5] = Acute toxicity (LD50) in rats; conditions: rat, in vivo
# Protocol: The compound of this invention for use as the active ingredient of said pharmaceutical composition or dialysis solution is extremely low in toxicity and highly safe and, therefore, can be used advantageously for purposes of this invention [e.g. the LD50 values of L-ascorbyl DL-α-tocopheryl phosphate potassium (hereinafter referred to briefly as EPC-K)≥5 g/kg p.o. (rats) and≥100 mg/kg i.v. (rats)].
smiles,measurement,setting,value
"Cc1c(C)c2c(c(C)c1OP(=O)(O)OC1=C(O)[C@@H]([C@@H](O)CO)OC1=O)CCC(C)(CCCC(C)CCCC(C)CCCC(C)C)O2 (mixture of isomers) [EPC-K, L-ascorbyl DL-α-tocopheryl phosphate potassium]",BUN,"[1]; * p < 0.0001, control (saline) 23.5 ± 1.7",18.2 ± 1.2 mg/dL
same,Creatinine,[1]; control (saline) 0.50 ± 0.28,0.30 ± 0 mg/dL
same,LPO,[1]; control (saline) 2.5 ± 1.8,1.4 ± 0.8 nmol/mL
same,Urinary protein,[1]; control (saline) 696 ± 710,119 ± 54 mg/day
same,BUN,"salt-sensitive rats; 5 mg/kg, i.p. once daily for 4 weeks",15.6 ± 2.7 mg/dL
same,BUN,"salt-sensitive rats; 141 mg/kg, p.o. once daily for 4 weeks",18.5 ± 2.1 mg/dL
same,Creatinine (serum),"[2]; * p < 0.05, distilled water 5.8 ± 0.2",2.0 ± 1.3 mg/dL
same,BUN (serum),"[2]; ** p < 0.01, distilled water 208.5 ± 17.7",62.5 ± 37.1 mg/dL
same,LPO (serum lipid peroxide),[2]; distilled water 5.4 ± 0.9,3.8 ± 0.1 nmol/mL
same,Chemiluminescence photon count,[3]; 1 μM,32230 ± 6949 CPM
same,Chemiluminescence photon count,[3]; 3 μM,26800 ± 3057 CPM
same,Chemiluminescence photon count,[3]; 10 μM,14518 ± 3648 CPM
same,inhibition at 1 µM,"[3]; Rattus norvegicus, 1 μM, versus blank test (HBS), read-out: Percent inhibition",24%
same,inhibition at 3 µM,"[3]; Rattus norvegicus, 3 μM, versus blank test (HBS), read-out: Percent inhibition",36.8%
same,inhibition at 10 µM,"[3]; Rattus norvegicus, 10 μM, versus blank test (HBS), read-out: Percent inhibition",65.8%
same,Creatinine,"[4]; 5 mg/kg, * p < 0.05",1.14 ± 0.32 mg/dL
same,BUN,"[4]; 5 mg/kg, * p < 0.05",61.5 ± 13.2 mg/dL
same,Creatinine,"[4]; 10 mg/kg, ** p < 0.01",0.73 ± 0.15 mg/dL
same,BUN,"[4]; 10 mg/kg, ** p < 0.01",40.2 ± 5.2 mg/dL
same,LD50,"[5]; iv, i.v. (rats)",≥ 100 mg/kg
same,LD50,"[5]; po, p.o. (rats)",≥ 5000 mg/kg
